Holding throughout (format): cell-based
Assay [1] relates to Proteus vulgaris P-5. The assay can be described thus: Potentiation disc assay with cephaloridine (Table 10). Particulars: for zone of inhibition at 625 µg/mL / zone of inhibition at 2500 µg/mL / zone of inhibition at 10000 µg/mL: P5, 18 h, read-out: Inhibition zone Without CER; for Potentiation of the antimicrobial activity of cephaloridine: disc assay, Table 10; for Inhibition zone With CER: 50 μg/ml cephaloridine in agar. The method, then:
(A) Ten milliliters of molten nutrient agar containing 50 μg/ml of penicillin G or cephaloridine, 0.8% of Kyokuto Nutrient Broth Powder and 1.0% of Difco Bacto-Agar (pH 7.0) were seeded with the beta-lactam-resistant, beta-lactamase-producing microorganisms indicated in Tables 9 and 10, and poured in a 9-cm Petri dish to provide the bio-assay agar plate. On this assay plate, 8-mm pulp discs containing 25 μl each of antibiotic PS-5 solutions at the indicated concentrations were placed and incubated at 35° C. for 18 hours before reading the inhibition zones. The control assay plate was similarly prepared without penicillin G nor cephaloridine. As reference antibiotics, penicillin G, ampicillin, oxacillin and cefazolin were disc-assayed under the same conditions.

Assay [2] concerns Streptococcus pyogenes NY-5. The assay is described as follows: MIC by broth dilution (Table 8). Particulars: NY5, 20 h; Streptococcus pyogenes NY-5; 10% horse blood supplemented into the medium; read-out: Minimum inhibitory concentration. The method, then:
(§1) The MIC values of antibiotic PS-5 sodium salt were determined on various pathogenic microorganisms including resistant strains by the broth dilution method utilizing the BRAIN HEART INFUSION BROTH `Eiken` (EIKEN CHEMICAL CO., LTD.).
(§2) The antibiotic PS-5 sodium salt was dissolved in BRAIN HEART INFUSION BROTH `Eiken` (EIKEN CHEMICAL CO., LTD.) (pH 7.0) at concentration in the range of 5-50 μg/ml, from which appropriate dilution series were made in the same liquid medium. The microorganisms listed in Table 8 were cultivated for 18 hours in BRAIN HEART INFUSION BROTH `Eiken` at 28° C. and inoculated into the said dilution series of antibiotic PS-5 at a final inoculum size of 1×10^5 cells/ml. The cultures were allowed to stand at 35° C. for 20 hours, and then the growth of the microorganisms was read at each dilution of antibiotic PS-5. The minimum inhibitory concentration (MIC) represents the smallest concentration of the antibiotic PS-5 (sodium salt) where no propagation of the relevant microorganism was visually confirmed. As the controls, two known beta-lactam antibiotics, cephaloridine and cefoxitin were dissolved in brain heart infustion broth at pH 7.0 at concentrations ranging from 1 μg/ml to 100 μ g/ml and then diluted to make several dilution series in the above mentioned liquid medium. These samples were treated as described above for the MIC determinations.

In assay [3] the test system is Staphylococcus aureus Smith. The assay is described as follows: MIC by broth dilution (Table 8). The settings on record: 20 h; Staphylococcus aureus Smith; PS-5 as sodium salt; read-out: Minimum inhibitory concentration. The method, then: as §1, §2
(Broth dilution looks for growth in wells or tubes with falling amounts of substance.)

For assay [4], the system named is Bacillus subtilis ATCC 6633. The assay can be described thus: MIC by broth dilution (Table 8). Particulars: ATCC6633, 20 h; Bacillus subtilis ATCC 6633; read-out: Minimum inhibitory concentration. The method, then: as §1, §2
Assay [5] relates to Staphylococcus aureus EDA 209 P. The assay can be described thus: MIC by broth dilution (Table 8). Particulars: EDA209P, 20 h; Staphylococcus aureus EDA 209 P; PS-5 as sodium salt; read-out: Minimum inhibitory concentration. The method, then: as §1, §2
In assay [6] the test system is Diplococcus pneumoniae Type III. The assay can be described thus: MIC by broth dilution (Table 8). The settings on record: Streptococcus pneumoniae, 20 h; Diplococcus pneumoniae Type III; 10% horse blood supplemented into the medium; read-out: Minimum inhibitory concentration. The method, then: as §1, §2
The subject of assay [7] is Staphylococcus aureus Bx-1633. The assay can be described thus: MIC by broth dilution (Table 8). The settings on record: BX1633, 20 h; Staphylococcus aureus Bx-1633; PS-5 as sodium salt; read-out: Minimum inhibitory concentration. The method, then: as §1, §2
For another assay, the system named is Enterobacter sp. E-8. The assay is described as follows: MIC by broth dilution (Table 8). The settings on record: SP.E8, 20 h; Enterobacter sp. E-8; betalactamase producer; read-out: Minimum inhibitory concentration. The method, then: as §1
as §2, with “determinations. In addition to the MIC values of antibiotic PS-5, those of cephaloridine and cefoxitin are included for reference.” for “determinations.”

The next assay has as its system Escherichia coli K 12. The assay can be described thus: MIC by broth dilution (Table 8). The settings on record: K12, 20 h; Escherichia coli K 12; read-out: Minimum inhibitory concentration. The method, then:
as §1
as §2, with “determinations. In addition to the MIC values of antibiotic PS-5, those of cephaloridine and cefoxitin are included for reference.” for “determinations.”

Assay [8] relates to Enterobacter aerogenes E-19. The assay is described as follows: MIC by broth dilution (Table 8). Particulars: Klebsiella aerogenes, E19, 20 h, betalactamase producer, read-out: Minimum inhibitory concentration. The method, then: as §1
as §2, with “determinations. In addition to the MIC values of antibiotic PS-5, those of cephaloridine and cefoxitin are included for reference.” for “determinations.”

Assay [9] deals with Staphylococcus aureus Russell. The assay is described as follows: MIC by broth dilution (Table 8). The settings on record: 20 h; Staphylococcus aureus Russell; PS-5 as sodium salt; read-out: Minimum inhibitory concentration. The method, then:
as §1
as §2, with “determinations. In addition to the MIC values of antibiotic PS-5, those of cephaloridine and cefoxitin are included for reference.” for “determinations.”

A further assay relates to Citrobacter freundii E-9. The assay is described as follows: MIC by broth dilution (Table 8). Particulars: E9, 20 h; Citrobacter freundii E-9; betalactamase producer; read-out: Minimum inhibitory concentration. The method, then:
as §1
as §2, with “determinations. In addition to the MIC values of antibiotic PS-5, those of cephaloridine and cefoxitin are included for reference.” for “determinations.”

The test system of assay [10] is Alcaligenes faecalis B-326. The assay can be described thus: MIC by broth dilution (Table 8). Particulars: B326, 20 h; Alcaligenes faecalis B-326; read-out: Minimum inhibitory concentration. The method, then: as §1
as §2, with “determinations. In addition to the MIC values of antibiotic PS-5, those of cephaloridine and cefoxitin are included for reference.” for “determinations.”

A further assay has as its system Providencia sp. P-8. The assay is described as follows: MIC by broth dilution (Table 8). The settings on record: SP.P8, 20 h, resistant to kanamycin, gentamicin and tobramycin, read-out: Minimum inhibitory concentration. The method, then:
as §1
as §2, with “determinations. In addition to the MIC values of antibiotic PS-5, those of cephaloridine and cefoxitin are included for reference.” for “determinations.”

Assay [11] deals with Enterobacter cloacae E-16. The assay can be described thus: MIC by broth dilution (Table 8). Particulars: E16, 20 h, betalactamase producer, read-out: Minimum inhibitory concentration. The method, then:
as §1
as §2, with “determinations. In addition to the MIC values of antibiotic PS-5, those of cephaloridine and cefoxitin are included for reference.” for “determinations.”

The next assay has as its system Proteus sp. P-22. The assay can be described thus: MIC by broth dilution (Table 8). The settings on record: 20 h; Proteus sp. P-22; read-out: Minimum inhibitory concentration. The method, then: as §1
as §2, with “determinations. In addition to the MIC values of antibiotic PS-5, those of cephaloridine and cefoxitin are included for reference.” for “determinations.”

Assay [12] deals with Proteus vulgaris P-5. The assay is described as follows: MIC by broth dilution (Table 8). Particulars: P5, 20 h, betalactamase producer, read-out: Minimum inhibitory concentration. The method, then: as §1
as §2, with “determinations. In addition to the MIC values of antibiotic PS-5, those of cephaloridine and cefoxitin are included for reference.” for “determinations.”

For the next assay, the system named is Serratia marcescens S-18. The assay can be described thus: MIC by broth dilution (Table 8). The settings on record: S18, 20 h, betalactamase producer, read-out: Minimum inhibitory concentration. The method, then:
as §1
as §2, with “determinations. In addition to the MIC values of antibiotic PS-5, those of cephaloridine and cefoxitin are included for reference.” for “determinations.”

In another assay the test system is Proteus mirabilis P-6. The assay can be described thus: MIC by broth dilution (Table 8). Particulars: P6, 20 h, resistant to kanamycin, gentamicin and tobramycin, read-out: Minimum inhibitory concentration. The method, then: as §1
as §2, with “determinations. In addition to the MIC values of antibiotic PS-5, those of cephaloridine and cefoxitin are included for reference.” for “determinations.”

The next assay deals with Proteus rettgeri P-7. The assay can be described thus: MIC by broth dilution (Table 8). Particulars: Providencia rettgeri, P7, 20 h, resistant to gentamicin and tobramycin, read-out: Minimum inhibitory concentration. The method, then:
as §1
as §2, with “determinations. In addition to the MIC values of antibiotic PS-5, those of cephaloridine and cefoxitin are included for reference.” for “determinations.”

Assay [13] concerns Klebsiella pneumoniae K-2. The assay is described as follows: MIC by broth dilution (Table 8). The settings on record: K2, 20 h, betalactamase producer, read-out: Minimum inhibitory concentration. The method, then: as §1
as §2, with “determinations. In addition to the MIC values of antibiotic PS-5, those of cephaloridine and cefoxitin are included for reference.” for “determinations.”

Where [14] appears, read: Proteus vulgaris P-5, reference antibiotic 625 μg/ml.
The mark [15] stands for this setting: Proteus vulgaris P-5, reference antibiotic 2,500 μg/ml.
Setting [16] is: Proteus vulgaris P-5, reference antibiotic 10,000 μg/ml.

Converted amounts (≈) assume the structure as drawn. Where two headings read alike, the source gives them in different places. Bounds are passed on as bounds.

In the case of `Cc1nnc(SCC2=C(C(=O)O)N3C(=O)[C@@H](NC(=O)Cn4cnnn4)[C@H]3SC2)s1` [Cefazolin, cefazolin], in the assay on Proteus vulgaris P-5 [1] (setting [14]), the zone of inhibition at 625 µg/mL stood at 0 mm and the “Inhibition zone With CER” value stood at 0 mm. Also, in the assay with Proteus vulgaris P-5 [1] (setting [15]), the zone of inhibition at 2500 µg/mL came out at 0 mm and the “Inhibition zone With CER” value is 0 mm. Moreover, in the assay with Proteus vulgaris P-5 [1] (setting [16]), the zone of inhibition at 10000 µg/mL stood at 14.6 mm and the “Inhibition zone With CER” value came out at 12.0 mm. Besides, the “Potentiation of the antimicrobial activity of cephaloridine” value (“Potentiation” below) in the assay on Proteus vulgaris P-5 [1] (Proteus vulgaris P-5) is reported as “could not increase the antimicrobial activity of cephaloridine”.

Consider `CO[C@@]1(NC(=O)Cc2cccs2)C(=O)N2C(C(=O)O)=C(COC(N)=O)CS[C@@H]21` [Cefoxitin, cefoxitin], for which the MIC is 0.63 µg/mL (≈ 1.47 µM) in assay [2]; 2.5 µg/mL in [3]; 1.25 µg/mL (≈ 2.92 µM) in assay [4]; 1.25 µg/mL in assay [5]; 1.25 µg/mL (≈ 2.92 µM) in [6]; 1.25 µg/mL in assay [7]. Moreover, the MIC was 12.5 µg/mL (≈ 29.2 µM) in the assay on Enterobacter sp. E-8; 2.5 µg/mL (≈ 5.85 µM) with Escherichia coli K 12; over 100 µg/mL in [8]; 2.5 µg/mL in assay [9]; over 100 µg/mL in the assay with Citrobacter freundii E-9; 1.56 µg/mL (≈ 3.65 µM) in assay [10]. Besides, the MIC with Providencia sp. P-8 was 25 µg/mL (≈ 58.5 µM); in assay [11] it was over 100 µg/mL; in the assay with Proteus sp. P-22, 12.5 µg/mL (≈ 29.2 µM); in the assay on Proteus vulgaris P-5 [12], 12.5 µg/mL (≈ 29.2 µM); in the assay with Serratia marcescens S-18 it was 50 µg/mL (≈ 117 µM); with Proteus mirabilis P-6, 12.5 µg/mL (≈ 29.2 µM). The MIC (in the assay with Proteus rettgeri P-7; in [13]) was 6.25 µg/mL (≈ 14.6 µM) throughout.

Turning to `Cc1onc(-c2ccccc2)c1C(=O)N[C@@H]1C(=O)N2[C@@H]1SC(C)(C)[C@@H]2C(=O)O` [Oxacillin, oxacillin], the “Potentiation” value with Proteus vulgaris P-5 [1] (Proteus vulgaris P-5) was “could not increase the antimicrobial activity of cephaloridine”. Besides, the “Inhibition zone With CER” value with Proteus vulgaris P-5 [1] (setting [14]) is recorded as 0 mm. In the assay with Proteus vulgaris P-5 [1] (setting [15]), the “Inhibition zone With CER” value amounted to 0 mm. The “Inhibition zone With CER” value with Proteus vulgaris P-5 [1] (setting [16]) stood at 0 mm. In the assay on Proteus vulgaris P-5 [1] (Proteus vulgaris), the zone of inhibition at 625 µg/mL was 0 mm, the zone of inhibition at 2500 µg/mL was 0 mm and the zone of inhibition at 10000 µg/mL amounted to 0 mm.

Consider `CC1(C)S[C@@H]2[C@H](NC(=O)Cc3ccccc3)C(=O)N2[C@H]1C(=O)O` [Penicillin G, penicillin G], for which the “Potentiation” value in the assay on Proteus vulgaris P-5 [1] (Proteus vulgaris P-5) is listed as “could not increase the antimicrobial activity of cephaloridine”. Also, in the assay with Proteus vulgaris P-5 [1] (setting [14]), the “Inhibition zone With CER” value came to 0 mm. For the same compound, in the assay on Proteus vulgaris P-5 [1] (setting [15]), the “Inhibition zone With CER” value is given as 0 mm. Moreover, the “Inhibition zone With CER” value in the assay on Proteus vulgaris P-5 [1] (setting [16]) stood at 14.5 mm. Besides, in the assay with Proteus vulgaris P-5 [1] (Proteus vulgaris), the zone of inhibition at 625 µg/mL came to 0 mm, the zone of inhibition at 2500 µg/mL stood at 0 mm and the zone of inhibition at 10000 µg/mL turned out to be 14.9 mm.

Values taken from patent US4318916A, “Antibiotic PS-5 and derivatives having β-lactamase inhibitory activity and production thereof” (Sanraku-Ocean Co., Ltd., priority 1977, dated 1982).
